Reference: article PMC10608315, “Organic Synthesis of New Secosteroids from Fucosterol, Its Intestinal Absorption by Caco-2 Cells, and Simulation of the Biological Activities of Vitamin D” (Marine Drugs, 2023)
Where two headings read alike, the source gives them in different places. Values belong to the compound of their own block, whether it stands above or below them.

Tests used:
human breast cancer cell = system: human breast cancer cell; parameters: method as in PMID 10762752; details: compared with 1,25-di(OH)-vitamin D3; cited from earlier work
[1] = system: chemically induced cancers; details: cited from earlier work
[2] = parameters: method as in PMID 12628523; details: cited from earlier work
rickets = details: rats; cited from earlier work
Caco-2 cells [3] = details: human, Caco-2, 24 h, 1 µM
Caco-2 cells [4] = assay: Intestinal absorption of mixed micellar secosteroid by differentiated Caco-2 monolayers in Transwell plates (remaining, uptake, transport); details: summary of Caco-2 uptake and transport, 24 h
[5] = parameters: method as in PMID 9598513, PMID 10389917; details: potential cancer therapy; cited from earlier work
Caco-2 = system: Caco-2; parameters: method as in PMID 9184144; details: cholesterol versus sitosterol; cited from earlier work

Structure (SMILES): C=C1/C(=C\C=C2/CCC[C@]3(C)[C@@H]([C@H](C)CC[C@@H](CC)C(C)C)CC[C@@H]23)C[C@@H](O)C[C@@H]1O [1-OH-vitamin D5]
- Inhibition of human breast cancer cell growth (human breast cancer cell): as effective as 1,25-di(OH)-vitamin D3
- Effectiveness compared with 1,25-di(OH)-vitamin D3 [1]: less effective than 1,25-di(OH)-vitamin D3
- Treatment of chemically induced cancers ([1]; mice and rats): effectively treated
- Side effects like weight loss and disruptions to calcium levels [2]: markedly fewer side effects

Structure (SMILES): C=C1CCC(O)C/C1=C/C=C1\CCCC2(C)C1CCC2C(C)CCC(CC)C(C)C (stereo not shown) [Vitamin D5]
- Anti-rickets activity (rickets): very low anti-rickets activity

- Intestinal absorption (uptake and transport) ranking (Caco-2 cells [3]): compound 4 ≥ vitamin D3 ≥ compound 3
Structure (SMILES): C=C(C)C(=CC)CCC(C)C1CCC2C(=CC=C3CC(O)CCC3=C)CCCC21C [Compound 4, (5Z,7E,24E)-(3S)-9,10-seco-5,7,10(19),24(24^1),25(27)-stigmastapentaen-3-ol]
- Concentration of micellar secosteroid remaining on the apical side (Caco-2 cells [3]): significantly higher concentrations than vitamin D3
- Secosteroid transported from the monolayer into the basolateral medium (Caco-2 cells [3]): No significant deviation was observed between vitamin D3 and compound 4

- Intestinal absorption (uptake and transport) ranking (Caco-2 cells [3]): compound 4 ≥ vitamin D3 ≥ compound 3
Structure (SMILES): C=C1CCC(O)CC1=CC=C1CCCC2(C)C1CCC2C(C)CCC(=CC)C(C)C [Compound 3, (5Z,7E,24E)-(3S)-9,10-seco-5,7,10(19),24(24^1)-stigmastatetraen-3-ol]
- Concentration of micellar secosteroid remaining on the apical side (Caco-2 cells [3]): significantly higher concentrations than vitamin D3

Structure (SMILES): C=C1CC[C@H](O)C/C1=C/C=C1\CCC[C@]2(C)[C@@H]([C@H](C)CCCC(C)C)CC[C@@H]12 [Vitamin D3, cholecalciferol]
- Intestinal absorption (uptake and transport) ranking (Caco-2 cells [4]): compound 4 ≥ vitamin D3 ≥ compound 3

Structure (SMILES): C=C1C(=CC=C2CCCC3(C)C2CCC3C(C)CCCC(C)(C)O)CC(O)CC1O (stereo not shown) [1,25-di(OH)-Vitamin D3]
- Side effects in clinical trials [5]: side effects like hypercalcemia [75] and hypercalciuria

Structure (SMILES): CC(C)CCC[C@@H](C)[C@H]1CC[C@H]2[C@@H]3CC=C4C[C@@H](O)CC[C@]4(C)[C@H]3CC[C@]12C [cholesterol]
- Uptake and transport by Caco-2 (Caco-2): higher for cholesterol than for sitosterol
